Test results from patent US8435947B2, “Endothelial nitric oxide synthase antagonists and uses thereof for inhibiting oxygen toxicity” (Medical College of Georgia Research Institute, Inc., priority 2010, dated 2013).

Key:
PAEC [1] = settings: peptide 20 μM, 95% oxygen 24 h
Method: (§1) Third- to sixth-passage cells in monolayer culture were maintained in RPMI 1640 medium containing 4% fetal bovine serum and antibiotics (10 units/ml penicillin, 100 μg/ml streptomycin, 20 μg/ml gentamicin, and 2 μg/ml Fungizone) and were used 2 or 3 days after confluence.

[2] = test system: pulmonary artery endothelial cells; assay: NO production in endothelial cells (NOx, SIEVERS); format: cell-based, pigs
Method: (§2) After wild-type and eNOS mutant transfection, ionomycin (2 μm) was added to the cells. After 30 min of incubation, culture medium was collected and ethanol-precipitated to remove proteins. 50 μl of the reaction mix were loaded to the SIEVERS machine for NOx measurement according to standard manufacturer's instructions (Church, J. E., and Fulton, D. (2006) J. Biol. Chem. 281, 1477-88). In some experiments, N^G-nitro-1-arginine methyl ester (L-NAME), a specific eNOS inhibitor, was used to inhibit NO production. […] For superoxide assay, after incubation with ABS peptides, the spin trap CMH was added to the cells. Superoxide from cells was trapped for 1 h, and then cells were scraped and subjected to EPR spectroscopy as previously described (Sud, N., et al. (2008) Am. J. Physiol. Cell Physiol. 294, C1407-18). Protein contents in the cell lysates were determined by Lowry's method.
To measure NO production, endothelial cells were incubated with ABS peptides for 3 h. Then ionomycin (2 μM) was added to the cells. After an additional 30 min, culture medium was collected and ethanol-precipitated to remove proteins. 50 μl of the reaction mix were loaded to the SIEVERS machine for NOx measurement as described above. For superoxide assay, after incubation with ABS peptides, the spin trap CMH was added to the cells. […]

PAEC [3] = assay: peroxynitrite formation in hyperoxic PAEC (APF fluorescence); format: cell-based, pigs; settings: 95% oxygen 24 h, uric acid 100 μM
Method: as §1
To reduce β-actin availability to eNOS, the β-actin mRNA was silenced using its siRNA as previously reported by us (Kondrikov, D., et al. (2006) Am. J. Physiol. Lung Cell Mol. Physiol. 290, L41-L50).

PAEC [4] = assay: superoxide radicals in hyperoxic PAEC (DHE fluorescence); format: cell-based, pigs; settings: 95% oxygen 24 h, tiron 5 mM
Method: After hyperoxic exposure, cells were loaded with 10 μM dihydroethidine (DHE) for 30 min. […] The excitation and emission wavelengths were 510 nm and 590 nm.

purified eNOS [5] = assay: L-citrulline assay with purified eNOS; format: biochemical, human; settings: peptide 20 μm; for β-actin-induced increase in L-citrulline production: β-actin 2.0 μm
Method: (§3) Wild-type and mutant eNOS proteins in COS-7 cells were purified. The catalytic activity of purified eNOS mutant protein was assayed by the measurement ofl-[^3H]citrulline formation from 1-[^3H]arginine as reported previously (Su, Y., et al. (2003) Am. J. Physiol. Cell Physiol. 284, C1542-49). To determine NADPH consumption by eNOS, 0.3 mm NADPH was added to 200 μl of reaction mix containing 1 μg eNOS, 1 μM FAD, 1 μmM FMN, 10 μg/ml calmodulin, 100 μMm L-arginine, 1 mM CaCl2, 10 μg/ml calmodulin, and 2.5 mM ATP. The reaction was monitored at […] for 10 min. NADPH consumption was calculated by using a molar extinction coefficient 6.22 mm^−·cm^−1. The superoxide formation from purified eNOS mutant was measured by spin trapping and EPR spectroscopy.

purified eNOS [6] = assay: NO (NOx) production by purified eNOS in vitro; format: biochemical, human; settings: peptide 20 μm; for β-actin-induced increase in NO production: β-actin 2.0 μm
Method: NO production was determined by measuring NOx (NO2 and NO3). Purified eNOS and β-actin were preincubated at room temperature for 30 min and then added to a 50-μl reaction mix containing 50 mM HEPES buffer, 1 mM NADPH, 100 μmM Larginine, 1 mmM CaCl2, 10 μg/ml calmodulin, 4 μM BH4. The mixture was incubated at 37° C. for 30 min. 40 μl of the reaction mix were loaded to the SIEVERS machine for NOx measurement according to standard manufacturer's instructions as previously described (Church, J. E., and Fulton, D. (2006) J. Biol. Chem. 281, 1477-88). For experiments with ABS peptides, β-actin and peptides were preincubated at room temperature for 20 min before eNOS protein was added.

purified eNOS [7] = assay: NADPH consumption assay with purified eNOS; format: biochemical, human; settings: peptide 20 μm, β-actin 2.0 μm, absence of BH4
Method: as §3

purified eNOS [8] = assay: superoxide generation by purified eNOS, spin-trapping EPR spectroscopy; format: biochemical, human; settings: peptide 20 μm; for β-actin-induced decrease in superoxide formation: β-actin 2.0 μm
Method: eNOS-derived superoxide generation was measured by electron paramagnetic resonance (EPR) spectroscopy and spin trapping as previously described (Sud, N., et al. (2008) Am. J. Physiol. Cell Physiol. 294, C1407-18). 50 μl of reaction mix containing 50 mM HEPES buffer, 1 mM NADPH, 100 μM Larginine, 1 mM CaCl2, 10 μg/ml calmodulin, and 1 μg of purified eNOS were incubated at 37° C. for 60 min. 12.5 μl of spin probe N1-hydroxy-3-methoxy-carbonyl-2,2,5,5-tetramethyl-pyrrolidine (CMH) in EPR buffer were added to the reaction mix. 35 μl of the final reaction mix were loaded into a 50-μl capillary tube and analyzed with a MiniScopeMS200 EPR (Magnetech, Berlin, Germany). A reaction curve was generated by adding 1 unit/ml of xanthine oxidase into 500 μM xanthine solution in buffered PBS (pH 7.4), which contains 5 μM diethyldithiocarbamate and 25 μMm desferrioxamine to inhibit any conversion of superoxide into either hydrogen peroxide or hydroxyl radical via Fenton reaction. Reactions were allowed to proceed at 25° C. for up to 40 min. Following incubation, ˜35 μl of each reaction mixture was loaded into a 50 μl capillary tube and analyzed immediately with EPR spectroscopy. EPR spectra were analyzed for amplitude using […] software (version 2.02, Magnettech). Given that 1 unit of xanthine oxidase will convert 1 μmol of xanthine per minute at 25° C., based on this standard curve, it was calculated that 1 EPR amplitude units is equivalent of 0.35 pmol of superoxide.

[9] = target: T1, F-actin (polymerized human β-actin) (Homo sapiens, UniProt P60709); assay: F-actin binding spin-down assay; settings: peptide 10 μM, 23 μM F-actin, 30 min, 150,000×g 2 h
T1 construct: purchased Cytoskeleton, Inc. (Denver, Co)
Method: The binding capacities of the peptides to β-actin were measured by using an F-actin binding spin-down assay kit from Cytoskeleton, Inc. (Denver, Co). Monomeric human β-actin was polymerized into F-actin in F-actin buffer (5 mM Tris-HCl, pH 7.8, 1 mM ATP, 0.5 mM DTT, 0.2 mmM CaCl2, 0.2 mM MgCl2, and 100 mM KCl) for 1 h at 24° C. ABS peptides at final concentrations of 10 μM were incubated alone or with 23 μM F-actin in F-actin buffer for 30 min in a total volume of 50 μl. The mixtures were centrifuged at 150,000×g for 2 h at 24° C. in a Beckman TLA-100 rotor. Supernatant and pellet fractions were resuspended in loading buffer and subjected to SDS-PAGE. The gel was stained with Coomassie Blue. The density of the band was measured using Software Image J.
Actin binding capabilities of the synthesized ABS peptides corresponding to putative ABSs in eNOS were evaluated by the F-actin binding spin-down assay. ABS peptides 326 (P326), control peptides, ABS peptides 492 (P492), and ABS peptides 245 (P245) at final concentrations of 10 μm were incubated for 30 min alone or with 23 μm F-actin in F-actin buffer containing 2.5 μM ATP and 2.5 μM DTT. After high speed centrifugation at 150,000×g for 2 h, the supernatants and pellets were subjected to SDS-PAGE analysis.

[10] = test system: pulmonary artery endothelial cells; assay: endothelial monolayer wound repair; format: cell-based, pigs; settings: PEG-SOD 100 units/ml, NOC-18 10 μm
Method: Pulmonary artery endothelial cells were incubated with ABS peptides for 3 h. Then endothelial monolayer wound repair in the absence and presence of PEG-SOD (100 units/ml) and NOC-18 (10 μm) was measured as previously reported (Su, Y., et al. (2006) FASEB J. 20, 1443-51). Endothelial monolayer wound repair distance was expressed as the width of the wound before treatment subtracted by that after treatment.

COS-7 cells = assay: superoxide formation in COS-7 cells transfected with wild type or mutant eNOS; format: cell-based; settings: ETU 100 μm or PEG-SOD
From the text: Human eNOS gene (GenBank™ M93718.1) was cloned into HindIII and XbaI sites of pcDNA3 vector and regarded as wild-type eNOS. […] The site-directed mutagenesis was custom-made by Retrogen (San Diego, Calif.). The sequences of both strands of the gene in the mutated region were verified by using ABI 3730 automated sequencer. Plasmids containing wild-type eNOS cDNA or eNOS mutant cDNA were transfected into COS-7 cells using Lipofectamine LTX with PLUS reagent (Invitrogen, Carlsbad, Calif.) according to the manufacturer's protocol. 48 h after transfection, cells were used for co-immunoprecipitation and assays for NO and superoxide generation.
as §2, with “Superoxide from cells was trapped for 1 h, and then cells were scraped and subjected to EPR spectroscopy as previously described (Sud, N., et al. (2008) Am. J. Physiol. Cell Physiol. 294, C1407-18).” left out

[11] = test system: pulmonary artery endothelial cells; assay: superoxide formation in endothelial cells (CMH spin trap, EPR); format: cell-based, pigs; settings: ETU 100 μm
Method: To measure NO production, endothelial cells were incubated with ABS peptides for 3 h. Then ionomycin (2 μM) was added to the cells. After an additional 30 min, culture medium was collected and ethanol-precipitated to remove proteins. 50 μl of the reaction mix were loaded to the SIEVERS machine for NOx measurement as described above. For superoxide assay, after incubation with ABS peptides, the spin trap CMH was added to the cells. Superoxide from cells was trapped for 1 h, and then cells were scraped and subjected to EPR spectroscopy.

**Q.** How did the “tyrosine nitration of proteins at 250, 100, 75, and 60 kDa, hyperoxia versus normoxia” value (PAEC [1]) turn out when “RKKRRQRRRAAGARAYAA [control peptide TAT, reference compound]” was run?
**A.** The value was “hyperoxia induced the increases in tyrosine nitration of proteins”.

**Q.** For `COC(=O)[C@@H](N)CCCNC(=N)N[N+](=O)[O-]` [L-NAME, N^G-nitro-1-arginine methyl ester, reference compound], which “inhibition of NO production” value [2] is on record?
**A.** The value was 90%.

**Q.** For `O=c1[nH]c(=O)c2[nH]c(=O)[nH]c2[nH]1` [uric acid, reference compound], which “hyperoxia-induced increase in APF fluorescence intensity (peroxynitrite)” value (PAEC [3]) is on record?
**A.** Its value is “prevented hyperoxia-induced increase in the fluorescence intensity”.

**Q.** How did the “increase in DHE fluorescence intensity (superoxide radical) in hyperoxic PAEC” value (PAEC [4]) turn out when `O=S(=O)(O)c1cc(O)c(O)c(S(=O)(=O)O)c1` [tiron] was run?
**A.** The value was “prevented the increase in the fluorescence intensity in hyperoxic PAEC”.

**Q.** What does the source list for LGLRWYAL [ABS peptide 326]?
**A.** L-citrulline production from eNOS, peptide per se (purified eNOS [5]; without β-actin): did not affect NO and L-citrulline production and superoxide formation; β-actin-induced increase in L-citrulline production (purified eNOS [5]): prevented β-actin-induced increase in NO and L-citrulline production; NO production from eNOS, peptide per se (purified eNOS [6]; without β-actin): did not affect NO and L-citrulline production and superoxide formation; β-actin-induced increase in NO production (purified eNOS [6]): prevented β-actin-induced increase in NO and L-citrulline production; β-actin-induced decrease in NADPH consumption (purified eNOS [7]): prevented β-actin-induced decrease in NADPH consumption; superoxide formation from eNOS, peptide per se (purified eNOS [8]; without β-actin): did not affect NO and L-citrulline production and superoxide formation; β-actin-induced decrease in superoxide formation (purified eNOS [8]): prevented

**Q.** With “AGARAYAA [control peptide for peptide 326, reference compound]” as the molecule, how does the “β-actin-induced increase in L-citrulline production” value (purified eNOS [5]) read?
**A.** Its value is “did not affect β-actin-induced changes in the production of NO, L-citrulline, and superoxide from eNOS”.

**Q.** What about the “β-actin-induced increase in NO production” value (purified eNOS [6]) of the same molecule?
**A.** Its value is “did not affect β-actin-induced changes in the production of NO, L-citrulline, and superoxide from eNOS”.

**Q.** What about the “β-actin-induced decrease in superoxide formation” value (purified eNOS [8]) of the same molecule?
**A.** Its value is “did not affect β-actin-induced changes in the production of NO, L-citrulline, and superoxide from eNOS”.

**Q.** For “NSQLVRYAGYRQQDGSVRGDPANVEITEL [ABS peptide 245]”, which “peptide pulled down to the pellets with F-actin” value [9] is on record?
**A.** Its value is “not pulled down to the pellets with F-actin”.

**Q.** For `NCCN(CCN)/[N+]([O-])=N/O` [NOC-18, reference compound], which “P326TAT-induced decrease in monolayer wound repair” value [10] is on record?
**A.** The value was “prevented P326TAT-induced decrease in monolayer wound repair”.

**Q.** With `CCSC(=N)N` [ETU, 2-ethyl-2-thiopseudourea, reference compound] as the molecule, how does the “superoxide generated from COS-7 cells, wild type versus eNOS mutant, in the presence of the agent” value (COS-7 cells) read?
**A.** Its value is “the amounts of superoxide generated from COS-7 cells containing wild type and eNOS mutant were comparable”.

**Q.** What about the “P326TAT-induced increase in superoxide formation” value [11] of the same molecule?
**A.** Its value is “inhibited P326TAT-induced increase in superoxide formation”.
